Patent US20220153746A1, “NITROGEN OXIDE-DONATING PDE-5 AND/OR PDE-6 INHIBITOR COMPOUNDS, AND USES THEREOF” (ILDONG PHARMACEUTICAL CO., LTD., priority 2020, published 2022)

Legend:
[1] = biological target: human PDE-5A1 (Homo sapiens, UniProt O76074); experiment: Human PDE-5A1 inhibition assay (fluorescence polarization, FAM-cGMP); assay type: biochemical; details: read-out: IC50 (μM) PDE5A1
[2] = biological target: human PDE-6C (Homo sapiens, UniProt P51160); experiment: Human PDE-6C inhibition assay (fluorescence polarization, FAM-cGMP); assay type: biochemical; details: read-out: IC50 (μM) PDE6C
human PDE-6C, sequence (P51160 whole entry): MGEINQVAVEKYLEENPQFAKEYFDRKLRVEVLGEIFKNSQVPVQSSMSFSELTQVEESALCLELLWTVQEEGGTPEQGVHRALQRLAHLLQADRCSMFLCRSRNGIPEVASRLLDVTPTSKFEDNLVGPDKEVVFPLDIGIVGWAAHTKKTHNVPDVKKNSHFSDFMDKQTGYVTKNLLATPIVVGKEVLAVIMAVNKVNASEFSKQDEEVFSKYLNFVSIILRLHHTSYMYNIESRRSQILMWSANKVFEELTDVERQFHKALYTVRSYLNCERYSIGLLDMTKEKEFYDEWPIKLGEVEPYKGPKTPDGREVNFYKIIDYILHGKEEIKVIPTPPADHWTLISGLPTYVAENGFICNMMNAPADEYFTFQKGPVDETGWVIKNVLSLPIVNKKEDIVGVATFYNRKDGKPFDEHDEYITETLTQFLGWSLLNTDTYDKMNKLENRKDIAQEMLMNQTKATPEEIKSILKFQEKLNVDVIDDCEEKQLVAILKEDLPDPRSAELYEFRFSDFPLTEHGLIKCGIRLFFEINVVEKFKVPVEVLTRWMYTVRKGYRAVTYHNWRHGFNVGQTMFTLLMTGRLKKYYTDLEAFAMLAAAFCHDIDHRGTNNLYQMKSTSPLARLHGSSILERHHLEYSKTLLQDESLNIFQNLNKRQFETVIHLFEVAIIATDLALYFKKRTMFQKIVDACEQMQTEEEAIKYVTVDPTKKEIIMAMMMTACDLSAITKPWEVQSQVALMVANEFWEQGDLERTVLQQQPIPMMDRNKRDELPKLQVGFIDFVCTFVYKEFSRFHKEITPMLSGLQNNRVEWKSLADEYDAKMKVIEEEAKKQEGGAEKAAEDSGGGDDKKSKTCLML

| IC50 [1] [µM] | IC50 [2] [µM] | Compound |
| --- | --- | --- |
| 0.01 to 0.1 | 0.01 to 0.1 | CCCc1nn(C)c2c(=O)[nH]c(-c3cc(S(=O)(=O)N4CC(O)C4)ccc3OCC)nc12 [Compound 1, 5-(2-ethoxy-5-((3-hydroxyazetidin-1-yl)sulfonyl)phenyl)-1-methyl-3-propyl-1,6-dihydro-7H-pyrazolo[4,3-d] pyrimidin-7-one] |
| 0.01 to 0.1 | 0.01 to 0.1 | CCCc1nn(C)c2c(=O)[nH]c(-c3cc(S(=O)(=O)N4CC(CO)C4)ccc3OCC)nc12 [Compound 2, 5-(2-ethoxy-5-((3-(hydroxymethyl)azetidin-1-yl)sulfonyl)phenyl)-1-methyl-3-propyl-1,6-dihydro-7H-pyrazolo[4,3-d]pyrimidin-7-one] |
| < 0.01 | < 0.01 | CCCc1nn(C)c2c(=O)[nH]c(-c3cc(S(=O)(=O)N4CC(CCO)C4)ccc3OCC)nc12 [Compound 3, 5-(2-ethoxy-5-((3-(2-hydroxyethyl)azetidin-1-yl)sulfonyl)phenyl)-1-methyl-3-propyl-1,6-dihydro-7H-pyrazolo[4,3-d]pyrimidin-7-one] |
| > 0.1 | 0.01 to 0.1 | CCCc1nn(C)c2c(=O)[nH]c(-c3cc(S(=O)(=O)N4CC(CN)C4)ccc3OCC)nc12 [Compound 5, 5-(5-((3-(aminomethyl)azetidin-1-yl)sulfonyl)-2-ethoxyphenyl)-1-methyl-3-propyl-1,6-dihydro-7H-pyrazolo[4,3-d] pyrimidin-7-one] |
| 0.01 to 0.1 | 0.01 to 0.1 | CCCc1nn(C)c2c(=O)[nH]c(-c3cc(S(=O)(=O)NC4CN(CCO)C4)ccc3OCC)nc12 [Compound 6, 4-ethoxy-N-(1-(2-hydroxyethyl)azetidin-3-yl)-3-(1-methyl-7-oxo-3-propyl-6,7-dihydro-1H-pyrazolo[4,3-d]pyrimidin-5-yl)benzenesulfonamide] |
| 0.01 to 0.1 | 0.01 to 0.1 | CCCc1nn(C)c2c(=O)[nH]c(-c3cc(S(=O)(=O)NC4CN(CCCO)C4)ccc3OCC)nc12 [Compound 7, 4-ethoxy-N-(1-(3-hydroxypropyl)azetidin-3-yl)-3-(1-methyl-7-oxo-3-propyl-6,7-dihydro-1H-pyrazolo[4,3-d]pyrimidin-5-yl)benzenesulfonamide] |
| 0.01 to 0.1 | 0.01 to 0.1 | CCCc1nn(C)c2c(=O)[nH]c(-c3cc(S(=O)(=O)NC4CN(CCCCO)C4)ccc3OCC)nc12 [Compound 8, 4-ethoxy-N-(1-(4-hydroxybutyl)azetidin-3-yl)-3-(1-methyl-7-oxo-3-propyl-6,7-dihydro-1H-pyrazolo[4,3-d]pyrimidin-5-yl)benzenesulfonamide] |
| 0.01 to 0.1 | 0.01 to 0.1 | CCCc1nn(C)c2c(=O)[nH]c(-c3cc(S(=O)(=O)N4CC(NCCO)C4)ccc3OCC)nc12 [Compound 9, 5-(2-ethoxy-5-((3-((2-hydroxyethyl)amino)azetidin-1-yl)sulfonyl)phenyl)-1-methyl-3-propyl-1,6-dihydro-7H-pyrazolo[4,3-d]pyrimidin-7-one] |
| < 0.01 |  | CCCc1nc(C)c2c(=O)[nH]c(-c3cc(S(=O)(=O)N4CC(O)C4)ccc3OCC)nn12 [Compound 41, 2-(2-ethoxy-5-((3-hydroxyazetidin-1-yl)sulfonyl)phenyl)-5-methyl-7-propylimidazo[5,1-f][1,2,4]triazin-4(3H)-one] |
| < 0.01 |  | CCCc1nc(C)c2c(=O)[nH]c(-c3cc(S(=O)(=O)N4CC(CO)C4)ccc3OCC)nn12 [Compound 42, 2-(2-ethoxy-5-((3-(hydroxymethyl)azetidin-1-yl)sulfonyl)phenyl)-5-methyl-7-propylimidazo[5,1-f][1,2,4]triazin-4(3H)-one] |
| < 0.01 |  | CCCc1nc(C)c2c(=O)[nH]c(-c3cc(S(=O)(=O)N4CC(CCO)C4)ccc3OCC)nn12 [Compound 43, 2-(2-ethoxy-5-((3-(2-hydroxyethyl)azetidin-1-yl)sulfonyl)phenyl)-5-methyl-7-propylimidazo[5,1-f][1,2,4]triazin-4(3H)-one] |
| < 0.01 |  | CCCc1nc(C)c2c(=O)[nH]c(-c3cc(S(=O)(=O)N4CC(CCCO)C4)ccc3OCC)nn12 [Compound 44, 2-(2-ethoxy-5-((3-(3-hydroxypropyl)azetidin-1-yl)sulfonyl)phenyl)-5-methyl-7-propylimidazo[5,1-f][1,2,4]triazin-4(3H)-one] |
| < 0.01 |  | CCCc1nc(C)c2c(=O)[nH]c(-c3cc(S(=O)(=O)N4CC(CN)C4)ccc3OCC)nn12 [Compound 45] |
| < 0.01 |  | CCCc1nc(C)c2c(=O)[nH]c(-c3cc(S(=O)(=O)NC4CN(CCO)C4)ccc3OCC)nn12 [Compound 46, 4-ethoxy-N-(1-(2-hydroxyethyl)azetidin-3-yl)-3-(5-methyl-4-oxo-7-propyl-3,4-dihydroimidazo[5,1-f][1,2,4]triazin-2-yl)benzenesulfonamide] |
| < 0.01 |  | CCCc1nc(C)c2c(=O)[nH]c(-c3cc(S(=O)(=O)NC4CN(CCCO)C4)ccc3OCC)nn12 [Compound 47, 4-ethoxy-N-(1-(3-hydroxypropyl)azetidin-3-yl)-3-(5-methyl-4-oxo-7-propyl-3,4-dihydroimidazo[5,1-f][1,2,4]triazin-2-yl)benzenesulfonamide] |
| < 0.01 |  | CCCc1nc(C)c2c(=O)[nH]c(-c3cc(S(=O)(=O)N4CC(NCCO)C4)ccc3OCC)nn12 [Compound 49, 2-(2-ethoxy-5-((3-((2-hydroxyethyl)amino)azetidin-1-yl)sulfonyl)phenyl)-5-methyl-7-propylimidazo[5,1-f][1,2,4]triazin-4(3H)-one] |
| < 0.01 |  | CCCc1nc(C)c2c(=O)[nH]c(-c3cc(S(=O)(=O)N4CC(NCCCO)C4)ccc3OCC)nn12 [Compound 50, 2-(2-ethoxy-5-((3-((3-hydroxypropyl)amino)azetidin-1-yl)sulfonyl)phenyl)-5-methyl-7-propylimidazo[5,1-f][1,2,4]triazin-4(3H)-one] |
| < 0.01 |  | CCCc1nc(C)c2c(=O)[nH]c(-c3cc(S(=O)(=O)N4CC(N(C)CCO)C4)ccc3OCC)nn12 [Compound 52, 2-(2-ethoxy-5-((3-((2-hydroxyethyl)(methyl)amino)azetidin-1-yl)sulfonyl)phenyl)-5-methyl-7-propylimidazo[5,1-f][1,2,4]triazin-4(3H)-one] |
| < 0.01 |  | CCCc1nc(C)c2c(=O)[nH]c(-c3cc(S(=O)(=O)N4CC(N(C)CCCO)C4)ccc3OCC)nn12 [Compound 53, 2-(2-ethoxy-5-((3-((3-hydroxypropyl)(methyl)amino)azetidin-1-yl)sulfonyl)phenyl)-5-methyl-7-propylimidazo[5,1-f][1,2,4]triazin-4(3H)-one] |
| < 0.01 |  | CCCc1nc(C)c2c(=O)[nH]c(-c3cc(S(=O)(=O)N4CC(O[N+](=O)[O-])C4)ccc3OCC)nn12 [Compound 55, 1-((4-ethoxy-3-(5-methyl-4-oxo-7-propyl-3,4-dihydroimidazo[5,1-f][1,2,4]triazin-2-yl)phenyl)sulfonyl)azetidin-3-yl nitrate] |
| < 0.01 |  | CCCc1nc(C)c2c(=O)[nH]c(-c3cc(S(=O)(=O)N4CC(CO[N+](=O)[O-])C4)ccc3OCC)nn12 [Compound 56, (1-((4-ethoxy-3-(5-methyl-4-oxo-7-propyl-3,4-dihydroimidazo[5,1-f][1,2,4]triazin-2-yl)phenyl)sulfonyl)azetidin-3-yl)methyl nitrate] |
| < 0.01 |  | CCCc1nc(C)c2c(=O)[nH]c(-c3cc(S(=O)(=O)N4CC(CCO[N+](=O)[O-])C4)ccc3OCC)nn12 [Compound 57, 2-(1-((4-ethoxy-3-(5-methyl-4-oxo-7-propyl-3,4-dihydroimidazo[5,1-f][1,2,4]triazin-2-yl)phenyl)sulfonyl)azetidin-3-yl) ethyl nitrate] |
| < 0.01 |  | CCCc1nc(C)c2c(=O)[nH]c(-c3cc(S(=O)(=O)N4CC(CCCO[N+](=O)[O-])C4)ccc3OCC)nn12 [Compound 58, 3-(1-((4-ethoxy-3-(5-methyl-4-oxo-7-propyl-3,4-dihydroimidazo[5,1-f][1,2,4]triazin-2-yl)phenyl)sulfonyl)azetidin-3-yl) propyl nitrate] |
| < 0.01 |  | CCCc1nc(C)c2c(=O)[nH]c(-c3cc(S(=O)(=O)NC4CN(CCO[N+](=O)[O-])C4)ccc3OCC)nn12 [Compound 59, 2-(3-((4-ethoxy-3-(5-methyl-4-oxo-7-propyl-3,4-dihydroimidazo[5,1-f][1,2,4]triazin-2-yl)phenyl)sulfonamido)azetidin-1-yl)ethyl nitrate] |
| < 0.01 |  | CCCc1nc(C)c2c(=O)[nH]c(-c3cc(S(=O)(=O)NC4CN(CCCO[N+](=O)[O-])C4)ccc3OCC)nn12 [Compound 60, 3-(3-((4-ethoxy-3-(5-methyl-4-oxo-7-propyl-3,4-dihydroimidazo[5,1-f][1,2,4]triazin-2-yl)phenyl)sulfonamido)azetidin-1-yl)propyl nitrate] |
| < 0.01 |  | CCCc1nc(C)c2c(=O)[nH]c(-c3cc(S(=O)(=O)N4CC(NCCO[N+](=O)[O-])C4)ccc3OCC)nn12 [Compound 61, 2-((1-((4-ethoxy-3-(5-methyl-4-oxo-7-propyl-3,4-dihydroimidazo[5,1-f][1,2,4]triazin-2-yl)phenyl)sulfonyl)azetidin-3-yl)amino)ethyl nitrate] |
| < 0.01 |  | CCCc1nc(C)c2c(=O)[nH]c(-c3cc(S(=O)(=O)N4CC(NCCCO[N+](=O)[O-])C4)ccc3OCC)nn12 [Compound 62, 3-((1-((4-ethoxy-3-(5-methyl-4-oxo-7-propyl-3,4-dihydroimidazo[5,1-f][1,2,4]triazin-2-yl)phenyl)sulfonyl)azetidin-3-yl)amino)propyl nitrate] |
| < 0.01 |  | CCCc1nc(C)c2c(=O)[nH]c(-c3cc(S(=O)(=O)N4CC(N(C)CCO[N+](=O)[O-])C4)ccc3OCC)nn12 [Compound 63, 2-((1-((4-ethoxy-3-(5-methyl-4-oxo-7-propyl-3,4-dihydroimidazo[5,1-f][1,2,4]triazin-2-yl)phenyl)sulfonyl)azetidin-3-yl)(methyl)amino)ethyl nitrate] |
| < 0.01 |  | CCCc1nc(C)c2c(=O)[nH]c(-c3cc(S(=O)(=O)N4CC(N(C)CCCO[N+](=O)[O-])C4)ccc3OCC)nn12 [Compound 64, 3-((1-((4-ethoxy-3-(5-methyl-4-oxo-7-propyl-3,4-dihydroimidazo[5,1-f][1,2,4]triazin-2-yl)phenyl)sulfonyl)azetidin-3-yl)(methyl)amino)propyl nitrate] |
